From PubChem BioAssay (NCI)
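GI50: concentration for 50% inhibition of growth. Definition used: TGI = concentration required for complete inhibition of growth.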

Tests used:
Assay in all cases: growth of human tumour cells (NCI), 384-well format
[1] = system: NCI-H23 lung
[2] = system: MDA-MB-231 breast
[3] = system: NCI-H522 lung
[4] = system: HOP-62 NSCLC
[5] = system: T-47D breast
[6] = system: MDA-MB-468 breast
[7] = system: SNB-75 CNS
[8] = system: UACC-257 melanoma
[9] = system: HCT-116 colon
[10] = system: EKVX NSCLC
[11] = system: HS 578T breast
[12] = system: SK-MEL-28 melanoma
[13] = system: TK-10 renal

Question: What does the source list for `C[C@@H](c1ccc2nccn2c1)n1nnc2ncc(-c3cnn(C)c3)nc21`?
Answer: GI50 [1]: 20.6 µM; TGI [1]: > 100 µM; GI50 [2]: > 100 µM; TGI [2]: > 100 µM; GI50 [3]: > 75.5 µM; TGI [3]: > 100 µM; GI50 [4]: > 92.4 µM; TGI [4]: > 100 µM; GI50 [5]: > 61.2 µM; TGI [5]: > 100 µM; GI50 [6]: 22 µM; TGI [6]: > 100 µM; GI50 [7]: > 76.8 µM; TGI [7]: > 100 µM; GI50 [8]: > 100 µM; TGI [8]: > 100 µM; GI50 [9]: > 100 µM; TGI [9]: > 100 µM; GI50 [10]: > 100 µM; TGI [10]: > 100 µM; GI50 [11]: > 100 µM; TGI [11]: > 100 µM; GI50 [12]: > 100 µM; TGI [12]: > 100 µM; GI50 [13]: > 100 µM; TGI [13]: > 100 µM
